The values that follow come from patent publication US20220160779A1, “COMPOSITION FOR PROMOTING CARTILAGE TISSUE REGENERATION” (National University Corporation Tokyo Medical and Dental …, priority 2019, published 2022).

This test concerns Akt. The test can be described thus: Western blotting, phosphorylation of Akt in synovial MSCs. It counts as cell-based, human. Particulars: FIG. 5F. On the procedure: Synovial MSCs were seeded in 6 cm dishes to reach a cell count of 2×10^5, and cultured in normal growth medium for 1 day. The medium was replaced with fresh medium with reduced amount of FBS (MEM-alpha, 0.5% FBS and antibiotics) and cultured for one more day. The cells were treated with rh Activin A and/or PDGF-AA (amount 3 times the ED50) for up to 30 minutes. Then, those cells were lysed with cell lysis buffer (#9803S; Cell Signaling Technology, MA) to prepare total cell lysate.
Western blotting was performed as described in Uomizu, M. et al, J Med Dent Sci. vol. 65, pp. 73 to 82. The antibodies used were purchased from Cell Signaling Technology (phospho-p44/42 (#4370), p44/42 (#9102), phospho-Akt (#9271), and Akt (#9272)).
Background: A western blot detects proteins with antibodies after separation by electrophoresis.

As to “Activin A: homodimer of two inhibin βA chains; recombinant human protein purchased from R&D Systems”, the “phosphorylation of Akt” value (Activin A alone, MSCs serum-starved 24 hours, within 30 minutes) is listed as “not detected”. Besides, the “phosphorylation of Akt by PDGF” value (Activin A together with PDGF-AA) is listed as “enhanced”.
